Like-named read-outs stand apart in the source and are kept apart here.
Tests used:
Euschistus heros = experiment: Spray of cotton seedlings, infestation with adults of Euschistus heros, alive insects and Abbott relative efficacy (Example-2, Example-3); format: in vivo; details: for Relative Efficacy 1DAI / Relative Efficacy 3DAI: Abbott's formula; for No of alive insects 1DAI / No of alive insects 3DAI: ten adults per plant, mean of 4 replicates
Method: Relative efficacy (E) values were calculated according to Abbot's formula
C is the number of alive insects in untreated controls, and G is the number of alive insects in plants treated with components of the ginkgo tree.
Fibermax™ LibertyLink™ cotton, and Bollgard II™ cotton seedlings were sprayed with 2 ml of compositions comprising either no component of the ginkgo tree, or bilobalide at a concentration of 150 ppm, or 100 ppm. Plants were allowed to dry and subsequently infested with ten adults of Euschistus heros. Four replicate measurement on different plants were made for each measurement. One day after infestation (1 DAI), and three days after infestation (3 DAI) the number of live and dead insects was determined. The mean number of alive insects, as well as the relative efficacy values (E) according to Abbott's formula were gathered in Table E, wherein the number of alive insects in untreated controls (C) was the value of the same plant without the application of bilobalide.
The experiment as described in Example-2 was repeated with ginkgolide A in a concentration of 250 ppm. […] The mean number of alive insects, as well as the relative efficacy values (E) according to Abbott's formula were gathered in Table F, wherein the number of alive insects in untreated controls (C) was the value of the same plant without the application of ginkgolide A.

Nezara viridula = experiment: Foliar spray of cotton plants, infestation with Nezara viridula, mortality after three days (Example-1); format: in vivo; details: for mortality at 100 ppm: Nezara viridula, foliar, 72 h
Method: Cotton plants were grown to growth stage BBCH 12. The cotton plants were then sprayed with 300 l/ha of aqueous compositions comprising either no component of the ginkgo tree, 300 ppm of ginkgolide A, or 100 ppm of bilobalide. The plants were then infested with five insects (either adult, or 4th instar nymphs) of Nezara viridula insects. Insects were contained on the plant using mesh organza bags. Three replicate measurement on different plants were made for each measurement. Three days after infestation, the number of live and dead insects was determined. The mean mortality values were gathered in Table D.

[1] = Fibermax LibertyLink cotton, 100 ppm
[2] = Fibermax LibertyLink cotton, 150 ppm
[3] = Fibermax LibertyLink cotton, 250 ppm

SMILES: CC(C)(C)[C@]1(O)C[C@@H]2OC(=O)C[C@@]23C(=O)O[C@@H]2OC(=O)[C@H](O)[C@]213 [Bilobalide, (3aS,5aR,8aS,9R,10aR)-9-tert-butyl-8,9-dihydroxydihydro-9H-furo[2,3-b]furo[3′,2′; 2,3]cyclopenta[1,2-c]furan-2,4,7(3H,8H)-trione]
- Relative Efficacy 1DAI (Euschistus heros; Bollgard II cotton, 100 ppm): 78%
- No of alive insects 1DAI (Euschistus heros; Bollgard II cotton, 100 ppm): 2.3
- Relative Efficacy 3DAI (Euschistus heros; Bollgard II cotton, 100 ppm): 98%
- No of alive insects 3DAI (Euschistus heros; Bollgard II cotton, 100 ppm): 0.3
- Relative Efficacy 1DAI (Euschistus heros; Bollgard II cotton, 150 ppm): 75%
- No of alive insects 1DAI (Euschistus heros; Bollgard II cotton, 150 ppm): 2.5
- Relative Efficacy 3DAI (Euschistus heros; Bollgard II cotton, 150 ppm): 100%
- No of alive insects 3DAI (Euschistus heros; Bollgard II cotton, 150 ppm): 0.0
- Relative Efficacy 1DAI (Euschistus heros; [1]): 68%
- No of alive insects 1DAI (Euschistus heros; [1]): 3.3
- Relative Efficacy 3DAI (Euschistus heros; [1]): 98%
- No of alive insects 3DAI (Euschistus heros; [1]): 0.3
- Relative Efficacy 1DAI (Euschistus heros; [2]): 70%
- No of alive insects 1DAI (Euschistus heros; [2]): 3.0
- Relative Efficacy 3DAI (Euschistus heros; [2]): 100%
- No of alive insects 3DAI (Euschistus heros; [2]): 0.0
- mortality at 100 ppm (Nezara viridula; read-out: Mortality of 4th instar nymphs): 92.9%
- mortality at 100 ppm (Nezara viridula; read-out: Mortality of Adults): 53.3%

SMILES: C[C@@H]1C(=O)O[C@H]2C[C@@]34[C@H]5C[C@@H](C(C)(C)C)[C@]36[C@@H](OC(=O)[C@@H]6O)O[C@@]4(C(=O)O5)[C@]21O [Ginkgolide A]
- Relative Efficacy 1DAI (Euschistus heros; Bollgard II cotton, 250 ppm): 5%
- No of alive insects 1DAI (Euschistus heros; Bollgard II cotton, 250 ppm): 9.5
- Relative Efficacy 3DAI (Euschistus heros; Bollgard II cotton, 250 ppm): 33%
- No of alive insects 3DAI (Euschistus heros; Bollgard II cotton, 250 ppm): 6.8
- Relative Efficacy 1DAI (Euschistus heros; [3]): 0%
- No of alive insects 1DAI (Euschistus heros; [3]): 10.0
- Relative Efficacy 3DAI (Euschistus heros; [3]): 5%
- No of alive insects 3DAI (Euschistus heros; [3]): 9.5
- Mortality of 4th instar nymphs (Nezara viridula; N. viridula 4th instar nymphs on cotton (BBCH 12), 300 ppm, 300 l/ha spray, three days after infestation, mean of 3 replicates): 78.6%
- Mortality of Adults (Nezara viridula; N. viridula adults on cotton (BBCH 12), 300 ppm, 300 l/ha spray, three days after infestation, mean of 3 replicates): 93.3%
